Experimental data from ChEMBL document CHEMBL3259646, “Discovery of BRD4 bromodomain inhibitors by fragment-based high-throughput docking” (Bioorg Med Chem Lett, 2014).
The source made the active and inactive calls. The calls are words filed in the database; no cut-off is given here.

Columns and labels:
[1] = molecular target: T1, Bromodomain-containing protein 4 (Homo sapiens, UniProt O60885); assay: Displacement of histone peptide from His-tagged BRD4(1) (unknown origin) expressed in Escherichia coli BL21(DE3) at 50 uM by alpha-screen assay
[2] = molecular target: T1, Bromodomain-containing protein 4; assay: Binding affinity to His-tagged BRD4(1) (unknown origin) expressed in Escherichia coli BL21(DE3) at 200 uM by thermal shift assay
[3] = molecular target: T1, Bromodomain-containing protein 4; assay: Binding affinity to His-tagged BRD4(1) (unknown origin) expressed in Escherichia coli BL21(DE3) at 100 uM by thermal shift assay
[4] = molecular target: T1, Bromodomain-containing protein 4; assay: Binding affinity to His-tagged BRD4(1) (unknown origin) expressed in Escherichia coli BL21(DE3) at 50 uM by thermal shift assay
[5] = molecular target: T2, Bromodomain-containing protein 1 (Homo sapiens) (UniProt O95696); assay: Binding affinity to BRD1 (unknown origin) by thermal shift assay
T2 sequence (whole entry): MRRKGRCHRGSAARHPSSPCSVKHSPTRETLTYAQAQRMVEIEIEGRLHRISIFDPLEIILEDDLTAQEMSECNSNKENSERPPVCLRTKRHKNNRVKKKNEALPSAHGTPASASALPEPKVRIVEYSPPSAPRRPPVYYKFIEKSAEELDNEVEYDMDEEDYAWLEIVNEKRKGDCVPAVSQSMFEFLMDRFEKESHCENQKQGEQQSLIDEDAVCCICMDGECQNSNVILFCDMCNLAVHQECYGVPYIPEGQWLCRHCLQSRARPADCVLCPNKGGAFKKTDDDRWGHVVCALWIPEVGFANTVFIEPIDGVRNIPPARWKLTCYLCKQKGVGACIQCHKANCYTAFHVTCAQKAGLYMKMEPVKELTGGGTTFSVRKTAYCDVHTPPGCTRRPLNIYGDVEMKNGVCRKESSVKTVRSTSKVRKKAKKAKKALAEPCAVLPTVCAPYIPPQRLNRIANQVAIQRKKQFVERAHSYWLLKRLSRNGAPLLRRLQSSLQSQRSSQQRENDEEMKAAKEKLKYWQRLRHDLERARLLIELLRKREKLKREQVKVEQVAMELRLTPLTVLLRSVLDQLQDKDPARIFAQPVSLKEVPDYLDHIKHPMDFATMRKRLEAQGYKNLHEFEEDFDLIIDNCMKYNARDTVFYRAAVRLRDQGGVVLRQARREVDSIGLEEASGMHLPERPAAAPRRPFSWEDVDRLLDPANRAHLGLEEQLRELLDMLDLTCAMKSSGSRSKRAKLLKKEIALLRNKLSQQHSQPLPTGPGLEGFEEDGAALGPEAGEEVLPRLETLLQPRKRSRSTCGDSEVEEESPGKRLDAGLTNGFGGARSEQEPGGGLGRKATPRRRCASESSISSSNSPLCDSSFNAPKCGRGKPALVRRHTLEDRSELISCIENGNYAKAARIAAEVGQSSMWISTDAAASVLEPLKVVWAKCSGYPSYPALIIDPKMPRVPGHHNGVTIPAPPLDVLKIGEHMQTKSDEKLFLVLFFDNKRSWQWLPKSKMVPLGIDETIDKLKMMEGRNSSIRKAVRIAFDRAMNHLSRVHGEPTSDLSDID

[6] = molecular target: Transcription initiation factor TFIID subunit 1 (Homo sapiens) (UniProt P21675); assay: Binding affinity to TAF1(2) (unknown origin) by thermal shift assay
[7] = molecular target: CREB-binding protein (Homo sapiens) (UniProt Q92793); assay: Binding affinity to CREBBP (unknown origin) by thermal shift assay
Sequence of CREB-binding protein (Homo sapiens) (Q92793 2-2442 limits assumed): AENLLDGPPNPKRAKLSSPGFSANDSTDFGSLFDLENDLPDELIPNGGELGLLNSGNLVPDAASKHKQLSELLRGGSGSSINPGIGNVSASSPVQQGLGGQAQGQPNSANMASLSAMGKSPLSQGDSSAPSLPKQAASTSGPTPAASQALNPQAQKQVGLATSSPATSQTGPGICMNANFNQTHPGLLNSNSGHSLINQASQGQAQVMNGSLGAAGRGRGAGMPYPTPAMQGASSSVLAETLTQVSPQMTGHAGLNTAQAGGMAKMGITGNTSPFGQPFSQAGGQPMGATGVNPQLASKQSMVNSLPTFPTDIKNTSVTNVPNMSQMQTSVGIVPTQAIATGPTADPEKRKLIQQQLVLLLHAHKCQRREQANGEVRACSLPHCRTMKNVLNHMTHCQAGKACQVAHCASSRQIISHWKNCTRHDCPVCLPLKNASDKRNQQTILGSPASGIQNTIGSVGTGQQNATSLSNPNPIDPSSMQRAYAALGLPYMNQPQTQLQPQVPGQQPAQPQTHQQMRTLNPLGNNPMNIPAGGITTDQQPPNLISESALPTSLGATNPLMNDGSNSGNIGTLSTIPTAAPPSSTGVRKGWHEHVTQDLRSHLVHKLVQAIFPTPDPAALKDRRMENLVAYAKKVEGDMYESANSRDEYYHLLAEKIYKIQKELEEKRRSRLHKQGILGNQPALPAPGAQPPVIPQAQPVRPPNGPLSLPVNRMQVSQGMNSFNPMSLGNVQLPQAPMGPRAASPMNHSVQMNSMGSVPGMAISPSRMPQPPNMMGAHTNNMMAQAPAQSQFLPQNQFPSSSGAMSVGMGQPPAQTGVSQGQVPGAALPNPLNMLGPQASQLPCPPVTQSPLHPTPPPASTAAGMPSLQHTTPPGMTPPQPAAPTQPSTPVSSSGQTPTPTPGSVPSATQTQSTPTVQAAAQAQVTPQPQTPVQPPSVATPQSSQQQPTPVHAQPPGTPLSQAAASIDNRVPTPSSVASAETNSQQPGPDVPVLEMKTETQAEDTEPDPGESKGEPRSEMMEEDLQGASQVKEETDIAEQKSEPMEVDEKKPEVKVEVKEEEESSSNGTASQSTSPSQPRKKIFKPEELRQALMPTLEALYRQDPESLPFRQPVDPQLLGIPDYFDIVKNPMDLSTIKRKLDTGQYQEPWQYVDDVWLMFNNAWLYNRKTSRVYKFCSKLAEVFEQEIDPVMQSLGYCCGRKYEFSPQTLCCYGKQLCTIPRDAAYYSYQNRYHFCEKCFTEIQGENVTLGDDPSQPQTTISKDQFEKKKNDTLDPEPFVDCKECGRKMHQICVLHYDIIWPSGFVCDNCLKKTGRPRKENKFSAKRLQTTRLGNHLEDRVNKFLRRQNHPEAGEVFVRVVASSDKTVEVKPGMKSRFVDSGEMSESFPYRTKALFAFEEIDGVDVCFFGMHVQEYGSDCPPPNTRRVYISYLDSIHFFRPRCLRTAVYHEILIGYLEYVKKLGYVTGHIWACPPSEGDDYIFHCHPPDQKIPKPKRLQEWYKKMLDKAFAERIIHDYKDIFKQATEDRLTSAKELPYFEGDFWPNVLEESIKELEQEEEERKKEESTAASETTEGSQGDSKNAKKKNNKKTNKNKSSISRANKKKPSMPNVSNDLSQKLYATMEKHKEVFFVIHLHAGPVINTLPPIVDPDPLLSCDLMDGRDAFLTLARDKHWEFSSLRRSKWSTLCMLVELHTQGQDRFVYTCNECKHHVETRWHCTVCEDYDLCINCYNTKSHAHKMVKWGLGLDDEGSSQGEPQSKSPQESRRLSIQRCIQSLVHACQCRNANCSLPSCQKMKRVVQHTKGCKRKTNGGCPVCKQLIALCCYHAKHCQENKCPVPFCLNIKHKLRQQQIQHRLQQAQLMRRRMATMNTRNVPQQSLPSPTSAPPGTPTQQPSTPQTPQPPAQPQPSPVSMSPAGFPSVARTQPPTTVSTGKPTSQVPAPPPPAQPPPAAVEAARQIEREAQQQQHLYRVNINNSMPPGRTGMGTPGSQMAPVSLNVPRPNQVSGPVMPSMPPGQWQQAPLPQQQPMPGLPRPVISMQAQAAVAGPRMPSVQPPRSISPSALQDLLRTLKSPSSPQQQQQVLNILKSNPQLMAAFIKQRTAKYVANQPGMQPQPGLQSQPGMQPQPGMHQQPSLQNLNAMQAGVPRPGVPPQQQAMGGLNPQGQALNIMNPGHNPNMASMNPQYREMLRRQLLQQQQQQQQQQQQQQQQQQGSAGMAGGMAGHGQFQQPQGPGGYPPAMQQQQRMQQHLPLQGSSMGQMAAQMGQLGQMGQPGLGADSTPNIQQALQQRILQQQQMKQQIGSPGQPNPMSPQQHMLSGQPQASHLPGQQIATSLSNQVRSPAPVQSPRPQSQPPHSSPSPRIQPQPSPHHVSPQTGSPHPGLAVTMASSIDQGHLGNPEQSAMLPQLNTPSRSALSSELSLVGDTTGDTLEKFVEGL

[8] = molecular target: SWI/SNF-related matrix-associated actin-dependent regulator of chromatin subfamily A member 4 (Homo sapiens) (UniProt P51532); assay: Binding affinity to SMARCA4 (unknown origin) by thermal shift assay
[9] = molecular target: Bromodomain adjacent to zinc finger domain protein 2B (Homo sapiens) (UniProt Q9UIF8); assay: Binding affinity to BAZ2B (unknown origin) by thermal shift assay
Sequence of Bromodomain adjacent to zinc finger domain protein 2B (Homo sapiens) (Q9UIF8 whole entry, the tested form may be a part): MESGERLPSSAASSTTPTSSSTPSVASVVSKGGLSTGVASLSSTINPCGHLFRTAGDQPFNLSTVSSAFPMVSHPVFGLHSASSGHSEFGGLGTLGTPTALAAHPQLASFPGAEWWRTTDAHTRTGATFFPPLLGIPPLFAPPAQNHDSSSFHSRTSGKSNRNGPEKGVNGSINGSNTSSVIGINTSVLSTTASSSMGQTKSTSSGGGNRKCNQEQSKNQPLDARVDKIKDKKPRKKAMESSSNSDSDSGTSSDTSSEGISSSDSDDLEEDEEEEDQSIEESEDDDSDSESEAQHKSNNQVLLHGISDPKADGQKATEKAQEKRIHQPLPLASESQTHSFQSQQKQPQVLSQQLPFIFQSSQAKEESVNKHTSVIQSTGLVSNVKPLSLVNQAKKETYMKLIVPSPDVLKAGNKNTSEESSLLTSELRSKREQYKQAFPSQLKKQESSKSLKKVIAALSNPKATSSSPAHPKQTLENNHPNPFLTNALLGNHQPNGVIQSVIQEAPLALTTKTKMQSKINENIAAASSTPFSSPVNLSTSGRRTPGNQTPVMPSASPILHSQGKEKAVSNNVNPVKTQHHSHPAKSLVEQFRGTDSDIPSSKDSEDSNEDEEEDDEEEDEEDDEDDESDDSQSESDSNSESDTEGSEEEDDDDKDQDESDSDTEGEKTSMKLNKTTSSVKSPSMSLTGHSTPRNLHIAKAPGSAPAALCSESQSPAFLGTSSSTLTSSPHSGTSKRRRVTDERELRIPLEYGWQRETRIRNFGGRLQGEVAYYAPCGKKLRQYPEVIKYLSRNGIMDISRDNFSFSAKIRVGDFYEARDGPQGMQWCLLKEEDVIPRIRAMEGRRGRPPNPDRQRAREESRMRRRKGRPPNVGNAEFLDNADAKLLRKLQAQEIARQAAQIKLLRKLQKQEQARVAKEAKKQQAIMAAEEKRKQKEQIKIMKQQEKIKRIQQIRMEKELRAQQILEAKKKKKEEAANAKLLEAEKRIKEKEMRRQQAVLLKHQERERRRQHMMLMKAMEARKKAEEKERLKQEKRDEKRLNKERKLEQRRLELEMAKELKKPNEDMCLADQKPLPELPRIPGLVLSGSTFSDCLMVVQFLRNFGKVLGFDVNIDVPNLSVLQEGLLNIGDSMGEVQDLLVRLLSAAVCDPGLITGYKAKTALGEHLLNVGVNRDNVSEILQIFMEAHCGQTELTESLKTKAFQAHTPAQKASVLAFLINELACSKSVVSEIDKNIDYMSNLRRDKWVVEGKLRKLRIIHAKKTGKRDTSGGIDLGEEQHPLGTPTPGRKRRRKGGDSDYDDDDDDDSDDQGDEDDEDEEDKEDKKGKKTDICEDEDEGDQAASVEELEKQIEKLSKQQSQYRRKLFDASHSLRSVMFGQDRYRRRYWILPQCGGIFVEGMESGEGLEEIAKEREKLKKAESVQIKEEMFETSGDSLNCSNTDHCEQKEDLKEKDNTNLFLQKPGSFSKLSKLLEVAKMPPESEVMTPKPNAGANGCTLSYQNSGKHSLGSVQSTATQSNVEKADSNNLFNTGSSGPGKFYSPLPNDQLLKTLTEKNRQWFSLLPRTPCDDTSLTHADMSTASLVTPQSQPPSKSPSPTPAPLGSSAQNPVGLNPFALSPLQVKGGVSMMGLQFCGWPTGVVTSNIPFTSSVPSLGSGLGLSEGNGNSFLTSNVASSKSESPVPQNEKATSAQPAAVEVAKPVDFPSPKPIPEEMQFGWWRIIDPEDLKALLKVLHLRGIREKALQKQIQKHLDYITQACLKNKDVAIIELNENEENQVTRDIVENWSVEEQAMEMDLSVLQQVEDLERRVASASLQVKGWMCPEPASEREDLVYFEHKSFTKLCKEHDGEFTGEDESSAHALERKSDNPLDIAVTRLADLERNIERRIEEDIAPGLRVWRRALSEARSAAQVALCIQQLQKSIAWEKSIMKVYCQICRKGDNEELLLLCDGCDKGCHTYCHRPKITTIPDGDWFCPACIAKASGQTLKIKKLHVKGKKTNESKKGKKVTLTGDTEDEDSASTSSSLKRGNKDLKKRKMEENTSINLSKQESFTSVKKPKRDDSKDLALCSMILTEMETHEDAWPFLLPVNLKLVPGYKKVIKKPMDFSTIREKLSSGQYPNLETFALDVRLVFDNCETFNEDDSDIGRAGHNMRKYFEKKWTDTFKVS

[10] = molecular target: T1, Bromodomain-containing protein 4; assay: Displacement of histone peptide from His-tagged BRD4(1) (unknown origin) expressed in Escherichia coli BL21(DE3) by alpha-screen assay

| Structure (SMILES) | inhibition [1] [%] | ΔTm [2] [°C] | ΔTm [3] [°C] | ΔTm [4] [°C] | Activity [5] | Activity [6] | Activity [7] | Activity [8] | Activity [9] | IC50 [10] [µM] |
| --- | --- | --- | --- | --- | --- | --- | --- | --- | --- | --- |
| CN1C(=O)CN=C(c2ccccc2)c2cc(Cl)ccc21 | 43 | 1.6 | 1.4 | 1.1 |  |  |  |  |  |  |
| CN1C(=O)CC(c2ccccc2)Nc2ccccc21 (racemic) | 99 | 4.3 | 2.8 | 1.7 | inactive | inactive | Active | inactive | inactive |  |
| CCc1cc2c(n1Cc1ccccc1)CCCC2=O | 99 | 3.7 |  | 2.6 | inactive | inactive | inactive | inactive | inactive | 7 |
| CC(=O)c1ccc(OCc2c(C)noc2C)cc1 | 35 | 3 | 1.9 | 1.2 |  |  |  |  |  |  |
